Test results reported in patent US12458629B2, “Method for treating nonsense mutation mediated duchenne muscular dystrophy in pediatric patients” (PTC THERAPEUTICS, INC., priority 2019, dated 2025).
Values joined by “and” are separate entries in the source; they are usually repeats but may differ in a detail not shown here. Identical values can stand only once. Like-named read-outs stand apart in the source and are kept apart here.

What was measured:
[1] = Ataluren plasma pharmacokinetics, NCT02819557 phase 2 open-label trial (LC-MS/MS); assay type: in vivo, human; details: for Cmax (0-6 hr) / concentration at 6 h / AUC(0-t) / Tmax: oral 10, 10, 20 mg/kg TID; for concentration at 6 h / AUC(0-t) / Tmax: male, human, plasma; for concentration at 6 h: oral, read-out: Ctrough-6 hr; for AUC(0-t) / Tmax: po, 20 mg/kg; for Tmax: read-out: tmax (0-6 hr)
Procedure: A total dose of 40 mg/kg/day study drug was administered as three divided doses per day. The first dose administered was: 10 mg/kg in the morning, the second dose administered was 10 mg/kg at midday, and the third dose administered was 20 mg/kg in the evening.
Evaluations included blood sampling for gene sequencing, blood sampling for ataluren PK, vital signs, height, weight, physical exam, hematology urinalysis, 12-lead ECG, palatability questionnaire, adverse events (AEs), concomitant medications and non-DMD-related Aes. For single-dose and steady-state plasma concentrations, blood samples were collected pre-dose and at 1, 2, 4, 6, 8, and 10 hours post-dose on Days 1 (Visit 2) and 28 (Visit 3). Ataluren plasma concentrations were determined using a validated liquid chromatography with tandem mass spectrometry (LC-MS/MS) method, with a lower limit of quantification (LOQ) of 0.500 μg/mL. Efficacy evaluations included TFTs and the NSAA, adapted as described below.
Observed values of plasma concentrations for ataluren were summarized at each visit and time point by dose level. Descriptive statistics (n, mean, standard deviation [SD], coefficient of variation [CV %], median, minimum, and maximum) and geometric means and their CV % were calculated. PK parameters (AUC0-6, AUC0-10, Cmax (0-6 hr) Ctrough (0-6 hr), t max (0-6 hr), accumulation ratio (AR) (AUC), AR (Cmax)) were derived using actual sampling and dosing times. Concentrations below the LOQ were set to zero for the calculation of non-compartmental analysis (NCA) parameters.

[2] = Effective plasma concentration range for maximum benefit by 6 minute walking distance (6 MWD); design: species or system human; details: in vivo
Procedure: As used herein, the term “therapeutically effective amount” refers to that amount of ataluren administered to a patient based on patient weight that is sufficient to attain an average plasma concentration in a range of at least about 1 μg/mL to about 20 μg/mL during a 24 hour time period.

[3] = system: pediatric patients having nmDMD; assay: Timed function tests (TFTs), NCT02819557; assay type: in vivo, human; details: for decrease in mean time taken to descend 4 stairs (SD): 40 mg/kg/day
Procedure: For timed function tests (TFTs), results summarizing the baseline values (Study Day 1), post-baseline values, and the change from baseline values were analyzed separately for each of the 4 tests, including time taken to i). walk/run 10 meters, ii). Climb 4 stairs, iii). Descend 4 stairs, and iv). Stand from a supine position. The 10 m walk/run test was assessed once. If the time taken to perform a TFT exceeded 30 seconds or if a subject could not perform a TFT due to disease progression, a value of 30 seconds was set for the summary analysis. The time values in seconds were summarized using descriptive statistics: n, mean, SD, median, range, and 95% confidence intervals. Observed values, and changes from baseline in TFTs were summarized accordingly for the evaluable population.

[4] = system: boys with nmDMD; details: boys about seven to about 16 years of age with nmDMD, Phase 3 NCT01826487; cited from earlier work
[5] = system: pediatric patients having nmDMD; assay: North Star Ambulatory Assessment (NSAA), 16-, 8- and 3-item, NCT02819557; assay type: in vivo, human
From the text: Certain assessments on the NSAA 16-point scale were revised to reflect developmental stages for a pediatric patient population, e.g., “Lifts Head” was removed from the total, Items 3 and 8 on the NSAA scales were further revised to detect changes in the pediatric younger age group.^18,22 The same analysis was used for all subjects (n=14).
However, all patients were included in the baseline and week 52 assessments.

[6] = Day 1 and Day 28, most subjects
[7] = Week 0 - Day 1, arithmetic mean, n=14
[8] = Week 4 - Day 28, arithmetic mean, n=14
[9] = Week 4 - Day 28 vs Day 1, arithmetic mean, n=14

O=C(O)c1cccc(-c2noc(-c3ccccc3F)n2)c1 [ataluren, 3-[5-(2-fluoro-phenyl)-[1,2,4]oxadiazol-3-yl]-benzoic acid]
time of peak concentration post-morning dose (first peak) [1, 6]: approximately 2 hours
time of peak concentration post-morning dose (second peak, 2 hours post midday dose) [1, 6]: ~8 h
drug accumulation across doses ([1]; Day 28 vs Day 1): no apparent accumulation
Cmax (0-6 hr) [1, 7]: 15950 ng/mL
Cmax (0-6 hr) [1, 8]: 12540 ng/mL
AR AUC0-6 (accumulation ratio) [1, 9]: 0.99
AR Cmax (accumulation ratio) [1, 9]: 1.02
concentration at 6 h [1, 7]: 9120 ng/mL
concentration at 6 h [1, 8]: 5430 ng/mL
AUC(0-t) ([1]; Week 0 - Day 1, arithmetic mean, n=14, boys ≥2 to <5 years with nmDMD, read-out: AUC0-6): 53000 ng·h/mL
AUC(0-t) ([1]; Week 0 - Day 1, arithmetic mean, n=14, read-out: AUC0-10): 102000 ng·h/mL
Tmax [1, 7]: 3.84 h
AUC(0-t) ([1]; Week 4 - Day 28, arithmetic mean, n=14, read-out: AUC0-6): 43600 ng·h/mL
AUC(0-t) ([1]; Week 4 - Day 28, arithmetic mean, n=14, read-out: AUC0-10): 82100 ng·h/mL
Tmax [1, 8]: 2.72 h
plasma levels and safety in the younger population relative to older children ([1]; ≥2 to <5 yrs vs ≥5 yrs nmDMD populations): similar
time post morning dose at which the effective plasma concentration range is typically found [2]: ≤ 2 h
Timed Function Test assessments, change from baseline ([3]; all four TFTs over the 52-week study period): overall improvements from baseline
mean reduction from baseline, 10 m walk/run time ([3]; week 28, 13 patients): 0.8 (±1.54) seconds
mean percent improvement (SD), time to climb 4 stairs ([3]; week 28 vs baseline): 9.10 (±29.63) percent and 9.10 (29.630) percent
mean percent improvement (SD), time to descend 4 stairs ([3]; week 28 vs baseline): 7.17 (±26.43) percent and 7.17 (26.433) percent
mean percent improvement, 10 m walk/run ([3]; week 28 vs baseline): 8.35% and 8.35 (22.778) %
reduction in mean time to climb 4 stairs ([3]; week 28 vs baseline, N=13): 1.8 (±4.85) seconds
decrease in mean time taken to descend 4 stairs (SD) ([3]; week 28 vs mean baseline of 7.1 seconds, 12 patients): 0.6 (±1.93) seconds
mean reduction from baseline, 10 m walk/run time ([3]; week 52, 14 patients): 1.1 (±1.35) seconds
mean percent improvement (SD), time to climb 4 stairs ([3]; week 52 vs baseline): 23.36 (±26.25) percent and 23.36 (26.249) percent
mean percent improvement (SD), time to descend 4 stairs ([3]; week 52 vs baseline): 24.22 (±28.32) percent and 24.22 (28.322) percent
mean percent improvement, 10 m walk/run ([3]; week 52 vs baseline): 14.54% and 14.54 (14.862) %
reduction in mean time to climb 4 stairs ([3]; week 52 vs baseline, N=14): 2.6 (±5.0) seconds
decrease in mean time taken to descend 4 stairs (SD) ([3]; week 52 vs mean baseline of 7.5 seconds, 13 patients): 2.2 (±2.58) seconds
mean improvement from baseline in stand from supine position assessment, week 28 compared with week 52 ([3]; weeks 28 (N=13) and 52 (N=14)): similar
tolerability [4]: generally well tolerated
3-item NSAA score, mean (SD) ([5]; Week 28, N=13): 5.8 (±0.38)
8-item NSAA score, mean (SD) ([5]; Week 28, N=13): 12.1 (+3.12)
16-item NSAA total score, mean (SD) ([5]; Week 28, N=13): 19.8 (±6.17) and 19.8 (6.17)
16-item NSAA total score, percent improvement over baseline ([5]; Week 28, N=13): 24.88% and 24.88 (27.203) %
3-item NSAA score, percent improvement over baseline ([5]; Week 28 vs baseline 5.4): 10.26%
8-item NSAA score, percent improvement over baseline ([5]; Week 28 vs baseline 10.5): 15.14%
16-item NSAA total score, improvement over baseline ([5]; Week 28 vs baseline 16.2, N=13): 3.5 (±3.43) points
3-item NSAA score, mean (SD) ([5]; Week 52, N=14): 5.6 (+0.63)
8-item NSAA score, mean (SD) ([5]; Week 52, N=14): 12.8 (+3.12)
16-item NSAA total score, mean (SD) ([5]; Week 52, N=14): 21.5 (±6.48) and 21.5 (6.48)
16-item NSAA total score, percent improvement over baseline ([5]; Week 52, N=14): 36.63% and 36.63 (29.956) %
3-item NSAA score, percent improvement over baseline ([5]; Week 52 vs baseline 5.4): 6.31%
8-item NSAA score, percent improvement over baseline ([5]; Week 52 vs baseline 10.5): 23.31%
16-item NSAA total score, improvement over baseline ([5]; Week 52 vs baseline 16.0, N=14): 5.5 (±4.43) points
